Experimental findings from US12209071B2, “Triazine derivatives for treating diseases relating to neurotrophins” (AlzeCure Pharma AB, priority 2018, dated 2025) are described below.

Each structure is given as a SMILES string.

The target of one test is T1, TrkA (Homo sapiens, UniProt P04629).
T1 construct: expressed in transfected cells; host or cells: U2OS
The experiment in a line: Enzyme Fragment Complementation cell-based assay, TrkA. The settings on record: U2OS-cells over-expressing TrkA; ligand 10 ng/mL; 3 hours incubation. The text has this: (§1) A high throughput cell-based screen has been used to identify positive modulators of TrkA, TrkB and TrkC. The screen involves the use of cell-based assay overexpressing TrkA, TrkB or TrkC. The purpose of the assay is to identify compounds that modulate neurotrophin signalling (Forsell et al 2012). The assay can be used in inhibitor mode using a high concentration of ligand, in modulator mode using an intermediate concentration and in agonist mode using a low concentration of ligand.
(§2) The assay uses Enzyme Fragment Complementation (EFC) technique, which is a proximity-based assay. Briefly, cells used in this assay over-express two fusion proteins, i.e. the receptor, which can be either one of TrkA, TrkB, TrkC, IGF1R or FGFR1, fused to a small peptide of beta-galactosidase and an adaptor protein, i.e. SHC1 (or any other Trk-adaptor protein) fused to the major part of beta-galactosidase. […] The proximity between the small activating peptide on the receptor and the major part of beta-galactosidase on the adaptor protein leads to an active beta-galactosidase enzyme. The activation of the receptor is quantified by measuring the amount of active beta-galactosidase by its conversion of a non-luminescent substrate into a luminescent product.
(§3) U2OS-cells, over-expressing TrkA or TrkB or TrkC, are plated in 96- or 384-well plates and incubated overnight. Alternatively, cryopreserved HEK293-cells expressing IGFR1 or cryopreserved U2OS-cells expressing FGFR1 were plated in 96- or 384-well plates. On the following day, test compound was pre-mixed with ligand (NGF, BDNF, NT-3, IGF-1 or basic fibroblast growth factor (bFGF(FGF-2))) and the ligand-compound mixture is then added to the cells to yield a final ligand concentration of 10 ng/mL. After 3 hours of incubation at room temperature, the incubation is stopped by the addition of a beta-galactosidase substrate mixture containing detergents. The substrate mixture is incubated for 60 minutes at ambient temperature. The luminescence is thereafter read by the use of a plate reader.

In the next test the target is T2, TrkB (Homo sapiens, UniProt Q16620).
T2 construct: expressed in transfected cells; host or cells: U2OS
The experiment in a line: Enzyme Fragment Complementation cell-based assay, TrkB. To be noted: U2OS-cells over-expressing TrkB; ligand 10 ng/mL; 3 hours incubation.
Text: as §1, §2, §3

The next test has as its target T3, TrkC (Homo sapiens, UniProt Q16288).
T3 construct: expressed in transfected cells; host or cells: U2OS
The experiment in a line: Enzyme Fragment Complementation cell-based assay, TrkC. To be noted: U2OS-cells over-expressing TrkC; ligand 10 ng/mL; 3 hours incubation.
Text: as §1, §2, §3

T1 sequence (P04629 33-796): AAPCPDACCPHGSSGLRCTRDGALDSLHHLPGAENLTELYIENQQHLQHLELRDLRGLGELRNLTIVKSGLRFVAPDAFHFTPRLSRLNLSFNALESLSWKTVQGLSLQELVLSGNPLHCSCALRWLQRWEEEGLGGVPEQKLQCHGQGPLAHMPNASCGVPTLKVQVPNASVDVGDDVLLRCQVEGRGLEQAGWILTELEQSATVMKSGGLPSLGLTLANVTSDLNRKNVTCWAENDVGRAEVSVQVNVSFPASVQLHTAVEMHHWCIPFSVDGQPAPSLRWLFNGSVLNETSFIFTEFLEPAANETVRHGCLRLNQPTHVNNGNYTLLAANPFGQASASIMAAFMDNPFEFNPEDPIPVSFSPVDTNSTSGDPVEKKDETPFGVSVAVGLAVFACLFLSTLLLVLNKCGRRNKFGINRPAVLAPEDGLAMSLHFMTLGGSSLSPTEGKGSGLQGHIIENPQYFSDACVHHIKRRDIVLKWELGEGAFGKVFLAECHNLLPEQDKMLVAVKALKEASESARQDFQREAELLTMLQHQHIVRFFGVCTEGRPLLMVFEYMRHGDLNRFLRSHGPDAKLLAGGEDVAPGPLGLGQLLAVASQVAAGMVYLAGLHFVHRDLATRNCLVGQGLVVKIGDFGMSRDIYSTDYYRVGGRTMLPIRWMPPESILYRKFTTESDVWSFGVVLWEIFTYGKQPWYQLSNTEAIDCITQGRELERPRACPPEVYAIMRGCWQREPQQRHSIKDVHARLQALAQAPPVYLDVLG
T2 sequence (Q16620 32-822): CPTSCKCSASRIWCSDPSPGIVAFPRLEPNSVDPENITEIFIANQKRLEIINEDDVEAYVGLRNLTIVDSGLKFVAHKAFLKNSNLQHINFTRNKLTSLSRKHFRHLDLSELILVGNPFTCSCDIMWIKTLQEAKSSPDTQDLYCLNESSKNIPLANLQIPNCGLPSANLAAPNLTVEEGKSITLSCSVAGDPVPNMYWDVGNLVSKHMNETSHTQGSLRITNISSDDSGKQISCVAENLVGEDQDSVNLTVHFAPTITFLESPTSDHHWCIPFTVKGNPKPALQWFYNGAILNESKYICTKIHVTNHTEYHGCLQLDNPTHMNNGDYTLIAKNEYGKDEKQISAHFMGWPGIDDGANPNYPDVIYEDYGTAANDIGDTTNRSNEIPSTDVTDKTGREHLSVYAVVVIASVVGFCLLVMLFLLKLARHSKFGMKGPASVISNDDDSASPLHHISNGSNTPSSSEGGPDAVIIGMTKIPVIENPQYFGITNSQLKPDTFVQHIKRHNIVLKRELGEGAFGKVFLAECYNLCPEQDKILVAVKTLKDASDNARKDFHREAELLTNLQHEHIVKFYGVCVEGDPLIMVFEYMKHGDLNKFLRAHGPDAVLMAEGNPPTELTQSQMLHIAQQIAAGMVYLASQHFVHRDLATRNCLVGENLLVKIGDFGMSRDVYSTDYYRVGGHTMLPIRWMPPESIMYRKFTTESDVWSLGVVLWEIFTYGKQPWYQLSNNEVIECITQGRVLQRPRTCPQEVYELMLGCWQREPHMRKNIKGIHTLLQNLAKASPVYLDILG
T3 sequence (Q16288 32-839): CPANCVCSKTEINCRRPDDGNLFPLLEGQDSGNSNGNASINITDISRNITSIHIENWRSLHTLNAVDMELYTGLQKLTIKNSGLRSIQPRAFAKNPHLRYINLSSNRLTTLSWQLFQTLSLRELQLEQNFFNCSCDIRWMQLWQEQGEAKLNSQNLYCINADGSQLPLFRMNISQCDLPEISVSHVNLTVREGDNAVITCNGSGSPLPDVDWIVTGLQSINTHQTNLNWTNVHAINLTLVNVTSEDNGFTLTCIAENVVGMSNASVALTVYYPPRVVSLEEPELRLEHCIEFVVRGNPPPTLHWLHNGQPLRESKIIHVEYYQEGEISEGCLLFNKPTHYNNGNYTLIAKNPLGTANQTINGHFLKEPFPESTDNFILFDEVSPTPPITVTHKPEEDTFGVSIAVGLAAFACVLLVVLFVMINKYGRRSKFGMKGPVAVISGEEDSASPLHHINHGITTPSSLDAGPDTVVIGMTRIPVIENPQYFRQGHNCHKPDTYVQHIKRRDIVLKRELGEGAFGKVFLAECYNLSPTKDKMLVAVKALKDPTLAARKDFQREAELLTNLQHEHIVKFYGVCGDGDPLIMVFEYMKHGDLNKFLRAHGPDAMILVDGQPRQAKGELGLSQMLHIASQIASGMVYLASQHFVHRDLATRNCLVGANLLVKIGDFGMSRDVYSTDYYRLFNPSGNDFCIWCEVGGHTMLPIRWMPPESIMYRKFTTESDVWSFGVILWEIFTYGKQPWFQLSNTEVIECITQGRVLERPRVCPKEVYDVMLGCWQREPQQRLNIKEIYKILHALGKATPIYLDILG

On to `Cn1c(=O)[nH]c(=O)n(-c2ccc(Oc3ccccc3)c(OC3CCCC3)c2)c1=O` [Example 15, 1-[3-(cyclopentyloxy)-4-phenoxyphenyl]-3-methyl-1,3,5-triazinane-2,4,6-trione], for which the values for the EC50 at TrkA, on TrkB and at TrkC were 590 nM, 650 nM and 1100 nM, respectively.
The matching figures for `CCOc1cc(-n2c(=O)[nH]c(=O)n(-c3ccccc3)c2=O)ccc1Oc1ccccc1` [Example 16, 1-(3-ethoxy-4-phenoxyphenyl)-3-phenyl-1,3,5-triazinane-2,4,6-trione]: 390 nM, 370 nM and 510 nM.
Regarding `O=c1[nH]c(=O)n(-c2ccc(Oc3ccccc3)c(OC3CCOC3)c2)c(=O)n1-c1ccccc1` (stereo not drawn) [Example 17, 1-[3-(oxolan-3-yloxy)-4-phenoxyphenyl]-3-phenyl-1,3,5-triazinane-2,4,6-trione], the EC50 came to 780 nM at TrkA, 750 nM at TrkB and 480 nM at TrkC.
The like results for `O=c1[nH]c(=O)n(-c2ccc(Nc3ccccc3)cc2)c(=O)n1-c1ccccc1` [Example 20, 1-phenyl-3-[4-(phenylamino)phenyl]-1,3,5-triazinane-2,4,6-trione] were, in that order, 6900 nM, 8900 nM and 3200 nM.
The like results for `CCOc1cc(-n2c(=O)[nH]c(=O)n(C)c2=O)ccc1Oc1ccccc1` [Example 21, 1-(3-ethoxy-4-phenoxyphenyl)-3-methyl-1,3,5-triazinane-2,4,6-trione] were, in that order, 2100 nM, 2300 nM and 1200 nM.
The like results for `Cn1c(=O)[nH]c(=O)n(-c2ccc(Oc3ccccc3)c(OC3CCOC3)c2)c1=O` (stereo not drawn) [Example 22, 1-methyl-3-[3-(oxolan-3-yloxy)-4-phenoxyphenyl]-1,3,5-triazinane-2,4,6-trione] were, in that order, 1300 nM, 3600 nM and 3000 nM.
For the compound `O=c1[nH]c(=O)n(-c2ccc(Oc3ccccc3)c(OC3CCCC3)c2)c(=O)n1-c1ccccc1` [Example 23, 1-[3-(cyclopentyloxy)-4-phenoxyphenyl]-3-phenyl-1,3,5-triazinane-2,4,6-trione], the results for the EC50 on TrkA, at TrkB and at TrkC were 1000 nM, 920 nM and 770 nM, respectively.
Turning to `Cn1c(=O)[nH]c(=O)n(-c2ccc(Oc3ccccc3)c(OCC3COC3)c2)c1=O` [Example 24, 1-methyl-3-[3-(oxetan-3-ylmethoxy)-4-phenoxyphenyl]-1,3,5-triazinane-2,4,6-trione], the results for the EC50 on TrkA, at TrkB and at TrkC were 500 nM, 610 nM and 220 nM, respectively.
The like results for `O=c1[nH]c(=O)n(-c2ccc(Oc3ccccc3)c(OCC3COC3)c2)c(=O)n1-c1ccccc1` [Example 25, 1-[3-(oxetan-3-ylmethoxy)-4-phenoxyphenyl]-3-phenyl-1,3,5-triazinane-2,4,6-trione] were, in that order, 550 nM, 790 nM and 1000 nM.
The like results for `CC(C)Oc1cc(-n2c(=O)[nH]c(=O)n(C)c2=O)ccc1Oc1ccccc1` [Example 26, 1-methyl-3-[4-phenoxy-3-(propan-2-yloxy)phenyl]-1,3,5-triazinane-2,4,6-trione] were, in that order, 1100 nM, 1500 nM and 2000 nM.
The matching figures for `CC(C)Oc1cc(-n2c(=O)[nH]c(=O)n(-c3ccccc3)c2=O)ccc1Oc1ccccc1` [Example 27, 1-[4-phenoxy-3-(propan-2-yloxy)phenyl]-3-phenyl-1,3,5-triazinane-2,4,6-trione]: 360 nM, 370 nM and 330 nM.
On to `COCCOc1cc(-n2c(=O)[nH]c(=O)n(C)c2=O)ccc1Oc1ccccc1` [Example 28, 1-[3-(2-methoxyethoxy)-4-phenoxyphenyl]-3-methyl-1,3,5-triazinane-2,4,6-trione], for which the values for the EC50 on TrkA, at TrkB and on TrkC were 1000 nM, 990 nM and 520 nM, respectively.
The like results for `COCCOc1cc(-n2c(=O)[nH]c(=O)n(-c3ccccc3)c2=O)ccc1Oc1ccccc1` [Example 29, 1-[3-(2-methoxyethoxy)-4-phenoxyphenyl]-3-phenyl-1,3,5-triazinane-2,4,6-trione] were, in that order, 560 nM, 500 nM and 340 nM.
Regarding `Cn1c(=O)[nH]c(=O)n(-c2ccc(Oc3ccccc3)c(OCc3ccccc3)c2)c1=O` [Example 30, 1-[3-(benzyloxy)-4-phenoxyphenyl]-3-methyl-1,3,5-triazinane-2,4,6-trione], the results for the EC50 on TrkA, on TrkB and at TrkC were 1100 nM, 7500 nM and 890 nM, respectively.
`Cc1cc(-n2c(=O)[nH]c(=O)n(-c3ccccc3)c2=O)ccc1Sc1ccccc1` [Example 34, 1-[3-methyl-4-(phenylsulfanyl)phenyl]-3-phenyl-1,3,5-triazinane-2,4,6-trione]: the 50% effective concentration (EC50) came to 1600 nM on TrkA, 2000 nM on TrkB and 1200 nM on TrkC.
Consider `Cc1cn(-c2ccccc2)c2ccc(-n3c(=O)[nH]c(=O)n(-c4ccccc4)c3=O)cc12` [Example 35, 1-(3-Methyl-1-phenyl-1H-indol-5-yl)-3-phenyl-1,3,5-triazinane-2,4,6-trione], for which the EC50 was determined as 980 nM on TrkA, 260 nM at TrkB and 500 nM at TrkC.
The like results for `Cc1cn(Cc2ccccc2)c2ccc(-n3c(=O)[nH]c(=O)n(-c4ccccc4)c3=O)cc12` [Example 36, 1-(1-Benzyl-3-methyl-1H-indol-5-yl)-3-phenyl-1,3,5-triazinane-2,4,6-trione] were, in that order, 950 nM, 460 nM and 1500 nM.
Turning to `Cc1cn(-c2ccccc2)c2ccc(-n3c(=O)[nH]c(=O)n(C)c3=O)cc12` [Example 37, 1-methyl-3-(3-methyl-1-phenyl-1H-indol-5-yl)-1,3,5-triazinane-2,4,6-trione], the EC50 was 390 nM at TrkA and 40 nM on TrkC.
On to `Cc1ccc(-n2c(=O)[nH]c(=O)n(-c3ccc(Oc4ccccc4)cc3C)c2=O)cc1` [Example 71, 1-(2-methyl-4-phenoxyphenyl)-3-(4-methylphenyl)-1,3,5-triazinane-2,4,6-trione], for which the figures for the EC50 at TrkA and on TrkB were 1660 nM and 610 nM, respectively.
The matching figures for `Cc1cc(-n2c(=O)[nH]c(=O)n(-c3cccc4occc34)c2=O)ccc1Oc1ccccc1` [Example 72, 1-(1-benzofuran-4-yl)-3-(3-methyl-4-phenoxyphenyl)-1,3,5-triazinane-2,4,6-trione]: 200 nM and 110 nM.
With `Cc1cc(-n2c(=O)[nH]c(=O)n(-c3cccc4ccoc34)c2=O)ccc1Oc1ccccc1` [Example 73, 1-(1-benzofuran-7-yl)-3-(3-methyl-4-phenoxyphenyl)-1,3,5-triazinane-2,4,6-trione], the EC50 on TrkA turned out to be 140 nM; on TrkB, 100 nM.
Regarding `COC(=O)c1cc(-n2c(=O)[nH]c(=O)n(-c3ccccc3)c2=O)ccc1Oc1ccccc1` [Example 74, methyl 2-phenoxy-5-(2,4,6-trioxo-3-phenyl-1,3,5-triazinan-1-yl)benzoate], the EC50 was determined as 580 nM at TrkA and 540 nM at TrkB.
`O=c1[nH]c(=O)n(-c2ccc(Oc3ccccc3)c(CO)c2)c(=O)n1-c1ccccc1` [Example 75, 1-[3-(hydroxymethyl)-4-phenoxyphenyl]-3-phenyl-1,3,5-triazinane-2,4,6-trione]: the results for the EC50 on TrkA and at TrkB were 1170 nM and 1800 nM, respectively.
The matching figures for `CN(C)C(=O)Cc1cc(-n2c(=O)[nH]c(=O)n(-c3ccccc3)c2=O)ccc1Oc1ccccc1` [Example 76, 1-{3-[2-(Dimethylamino)-2-oxoethyl]-4-phenoxyphenyl}-3-phenyl-1,3,5-triazinane-2,4,6-trione]: 33000 nM and 4530 nM.
Regarding `CN(C)C(=O)COc1cc(-n2c(=O)[nH]c(=O)n(-c3ccccc3)c2=O)ccc1Oc1ccccc1` [Example 77, 1-{3-[2-(Dimethylamino)-2-oxoethoxy]-4-phenoxyphenyl}-3-phenyl-1,3,5-triazinane-2,4,6-trione], the EC50 was determined as 430 nM on TrkA and 360 nM at TrkB.
The like results for `Cc1ccc(-n2c(=O)[nH]c(=O)n(-c3cnc(Oc4ccccc4)c(C)c3)c2=O)cc1` [Example 78, 1-(5-Methyl-6-phenoxypyridin-3-yl)-3-(p-tolyl)-1,3,5-triazinane-2,4,6-trione] were, in that order, 3510 nM and 3830 nM.
